# According to US11591355B2 (Peloton Therapeutics, Inc., priority 2017, dated 2023):
# Assays:
# Human CD73 = target: T1, Human CD73 (Homo sapiens, UniProt P21589); test: CD73 Enzyme Assay; format: biochemical; settings: 0.25 nM hCD73, 25 μM AMP, kinetic read at 360 nm; read-out: CD73 Enzyme Assay IC50
# T1 construct: purchased R&D Systems; host or cells: CHO cells
# T1 sequence (P21589 27-549): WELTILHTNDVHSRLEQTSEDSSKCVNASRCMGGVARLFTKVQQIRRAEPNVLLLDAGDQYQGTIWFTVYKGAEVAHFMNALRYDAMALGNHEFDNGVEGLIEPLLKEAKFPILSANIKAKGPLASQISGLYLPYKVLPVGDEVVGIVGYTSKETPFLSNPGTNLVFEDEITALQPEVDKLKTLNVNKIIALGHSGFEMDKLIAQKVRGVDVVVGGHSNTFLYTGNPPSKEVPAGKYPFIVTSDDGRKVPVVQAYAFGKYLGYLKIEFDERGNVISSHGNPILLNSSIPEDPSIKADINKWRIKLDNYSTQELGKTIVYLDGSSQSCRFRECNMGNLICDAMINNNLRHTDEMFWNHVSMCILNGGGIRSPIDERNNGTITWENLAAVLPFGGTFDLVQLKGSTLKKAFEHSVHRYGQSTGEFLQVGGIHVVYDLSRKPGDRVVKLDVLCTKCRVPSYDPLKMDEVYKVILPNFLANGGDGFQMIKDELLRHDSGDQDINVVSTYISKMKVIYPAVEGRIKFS
# [1] = target: T2, CD73 on U138 human neuroglioma cells (Homo sapiens, UniProt P21589); test: CD73 Cell-Based Assay; settings: U138 cells, AMP substrate, 2 hours at 37° C., inorganic phosphate by malachite green
# T2 construct: U138 cells were obtained from ATCC and cultured in DMEM with 10% FBS; host or cells: U138 human neuroglioma cells
# T2 sequence (P21589 27-549): T1 sequence (P21589 27-549)
# Outline: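 Whole U138 cells washed free of phosphate were incubated with 200 μM AMP (mixture concentration before equal-volume addition) plus compound in HEPES-buffered saline, pH 7.4, for 2 h at 37 °C, 5% CO2. Adenosine-forming activity read as inorganic phosphate released into supernatant by malachite green.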
Compound,IC50 (Human CD73) [nM],IC50 [1] [nM]
"O=P(O)(O)COC[C@H]1O[C@@H](c2c(Br)sc3c(N4CC5CCCC5C4)nc(Cl)nc23)[C@H](O)[C@@H]1O (stereo partly drawn) [Compound 297, [(2R,3S,4R,5S)-5-[4-(3,3a,4,5,6,6a-hexa-hydro-1H-cyclopenta-[c]pyrrol-2-yl)-6-bromo-2-chloro-thieno[3,2-d]-pyrimidin-7-yl]-3,4-dihydroxy-tetrahydro-furan-2-yl]methoxy-methylphosphonic acid]",100 to 1000,100 to 1000
"O=P(O)(O)COC[C@H]1O[C@@H](c2ccc3c(NC4CCCC4)nc(Cl)nn23)[C@H](O)[C@@H]1O [Compound 298, [(2R,3S,4R,5S)-5-[2-chloro-4-(cyclopentyl-amino)pyrrolo[2,1-f]-[1,2,4]triazin-7-yl]-3,4-dihydroxy-tetrahydro-furan-2-yl]methoxy-methylphosphonic acid]",< 10,< 10
"N#Cc1nc(NC2CC3CC3C2)c2cnn([C@@H]3O[C@H](CS(=O)(=O)CP(=O)(O)O)[C@@H](O)[C@H]3O)c2n1 (stereo partly drawn) [Compound 300, [(2S,3S,4R,5R)-5-[4-(3-bicyclo[3.1.0]-hexanylamino)-6-cyano-pyrazolo[3,4-d]-pyrimidin-1-yl]-3,4-dihydroxy-tetrahydro-furan-2-yl]methyl-sulfonylmethylphos-phonic acid]",10 to 100,< 10
"O=P(O)(O)CS(=O)(=O)C[C@H]1O[C@@H](n2ccc3c(NC4CCCC4)nc(C(F)(F)F)nc32)[C@H](O)[C@@H]1O [Compound 303, [(2S,3S,4R,5R)-5-[4-(cyclopentylamino)-2-(trifluoromethyl)-pyrrolo[2,3-d]-pyrimidin-7-yl]-3,4-dihydroxy-tetrahydro-furan-2-yl]methyl-sulfonylmethylphos-phonic acid]",10 to 100,10 to 100
"O=P(O)(O)COC[C@H]1O[C@H](c2csc3c(N4CC5CCCC5C4)nc(Cl)nc23)[C@H](O)[C@@H]1O (stereo partly drawn) [Compound 304, [(2R,3S,4R,5R)-5-[4-(3,3a,4,5,6,6a-hexa-hydro-1H-cyclopenta-[c]pyrrol-2-yl)-2-chloro-thieno[3,2-d]-pyrimidin-7-yl]-3,4-dihydroxy-tetrahydro-furan-2-yl]methoxy-methylphosphonic acid]",> 1000,> 1000
"O=P(O)(O)COC[C@H]1O[C@@H](c2csc3c(NC4CCCC4)nc(Cl)nc23)[C@H](O)[C@@H]1O [Compound 305, [(2R,3S,4R,5S)-5-[2-chloro-4-(cyclopentyl-amino)thieno[3,2-d]-pyrimidin-7-yl]-3,4-dihydroxy-tetrahydro-furan-2-yl]methoxy-methylphosphonic acid]",10 to 100,10 to 100

# Further lines, results first:
IC50 (Human CD73) [nM],IC50 [1] [nM],Compound
< 10,< 10,"N#Cc1nc(NC2CCCC2)c2cnn([C@@H]3O[C@H](CS(=O)(=O)CP(=O)(O)O)[C@@H](O)[C@H]3O)c2n1 [Compound 296, (((((2S,3S,4R,5R)-5-(6-cyano-4-(cyclopentylamino)-1H-pyrazolo[3,4-d]pyrimidin-1-yl)-3,4-dihydroxytetrahydrofuran-2-yl)methyl)sulfonyl)methyl)phosphonic acid]"
< 10,< 10,"N#Cc1nc(N2CC3CCCC3C2)c2cnn([C@@H]3O[C@H](CS(=O)(=O)CP(=O)(O)O)[C@@H](O)[C@H]3O)c2n1 (stereo partly drawn) [Compound 299, [(2S,3S,4R,5R)-5-[4-(3,3a,4,5,6,6a-hexa-hydro-1H-cyclopenta-[c]pyrrol-2-yl)-6-cyano-pyrazolo[3,4-d]-pyrimidin-1-yl]-3,4-dihydroxy-tetrahydro-furan-2-yl]methyl-sulfonylmethylphos-phonic acid]"
10 to 100,< 10,"C[C@H](Nc1nc(C#N)nc2c1cnn2[C@@H]1O[C@H](CS(=O)(=O)CP(=O)(O)O)[C@@H](O)[C@H]1O)c1ccc(F)cc1 [Compound 307, [(2S,3S,4R,5R)-5-[6-cyano-4-[[(1S)-1-(4-fluorophenyl)ethyl]-amino]pyrazolo[3,4-d]pyrimidin-1-yl]-3,4-dihydroxy-tetrahydro-furan-2-yl]methyl-sulfonylmethylphos-phonic acid]"
< 10,< 10,"N#Cc1nc(NC2CCC2)c2cnn([C@@H]3O[C@H](CS(=O)(=O)CP(=O)(O)O)[C@@H](O)[C@H]3O)c2n1 [Compound 308, [(2S,3S,4R,5R)-5-[6-cyano-4-(cyclobutyl-amino)pyrazolo[3,4-d]-pyrimidin-1-yl]-3,4-dihydroxy-tetrahydro-furan-2-yl]methyl-sulfonylmethylphos-phonic acid]"
